From ChEMBL document CHEMBL1201862, “PubChem BioAssay data set” (2004)
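Where inhibition never reached the appropriate level, the endpoint shown equals the highest concentration tested. Otherwise, values were interpolated linearly from a five-concentration, 48-hour dose response in 96-well plates. GI50 marks 50% less growth.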 Calls of active or inactive are those of the source. Cut-off read from the data, not from the text of the source: active = GI50 up to about 1.1 µM and inactive = higher.

Tests used:
Assay in all cases: DTP human tumour cell line panel, 48 h
SF-295 = test system: SF-295
A549 = test system: A549
M14 = test system: M14
HCT-15 = test system: HCT-15
SW-620 = test system: SW-620
OVCAR-3 = test system: OVCAR-3
SF-268 = test system: SF-268
SK-MEL-5 = test system: SK-MEL-5
UACC-62 = test system: UACC-62
HL-60 = test system: HL-60
NCI-H460 = test system: NCI-H460
HOP-92 = test system: HOP-92
SN12C = test system: SN12C
SF-539 = test system: SF-539
SNB-75 = test system: SNB-75
OVCAR-8 = test system: OVCAR-8
RXF 393 = test system: RXF 393

| SMILES | GI50 (SF-295) | GI50 (A549) | GI50 (M14) | GI50 (HCT-15) | GI50 (SW-620) | GI50 (OVCAR-3) | GI50 (SF-268) | GI50 (SK-MEL-5) | GI50 (UACC-62) | GI50 (HL-60) | GI50 (NCI-H460) | GI50 (HOP-92) | GI50 (SN12C) | GI50 (SF-539) | GI50 (SNB-75) | GI50 (OVCAR-8) | GI50 (RXF 393) |
| --- | --- | --- | --- | --- | --- | --- | --- | --- | --- | --- | --- | --- | --- | --- | --- | --- | --- |
| CCN(CC)CCCCC1CCN(CC(=O)N2c3cc(Cl)ccc3NC(=O)CC2C)CC1 (centres undefined) | > 100 µM (inactive) | > 100 µM (inactive) | > 100 µM (inactive) | > 100 µM | > 100 µM (inactive) | > 100 µM (inactive) | > 100 µM (inactive) | > 100 µM (inactive) | > 100 µM (inactive) | > 100 µM (inactive) | > 100 µM (inactive) | > 100 µM (inactive) | > 100 µM (inactive) | – | – | – | – |
| COC(=O)C1(O)CC(=O)CCC1c1ccc(OC)cc1 (centres undefined) | > 100 µM (inactive) | > 100 µM (inactive) | > 100 µM (inactive) | > 100 µM | > 100 µM (inactive) | > 100 µM (inactive) | > 100 µM (inactive) | > 100 µM (inactive) | > 100 µM (inactive) | > 100 µM (inactive) | > 100 µM (inactive) | > 100 µM (inactive) | > 100 µM (inactive) | > 100 µM (inactive) | > 100 µM (inactive) | > 100 µM (inactive) | – |
| O[C@H]1[C@H](O)[C@@H](O)CN2CC[C@H](O)[C@H]12 [CASTANOSPERMINE] | > 100 µM (inactive) | > 100 µM (inactive) | – | > 100 µM | > 100 µM (inactive) | > 100 µM (inactive) | > 100 µM (inactive) | > 100 µM (inactive) | > 100 µM (inactive) | > 39.8 µM (inactive) | > 100 µM (inactive) | > 100 µM (inactive) | > 100 µM (inactive) | > 100 µM (inactive) | > 100 µM (inactive) | > 100 µM (inactive) | > 100 µM (inactive) |
| C(=N\CC/N=C/c1cccc2ccccc12)/c1cccc2ccccc12 | > 100 µM (inactive) | > 100 µM (inactive) | – | > 100 µM | > 100 µM (inactive) | – | – | > 100 µM (inactive) | > 100 µM (inactive) | – | > 100 µM (inactive) | < 0.01 µM (active) | > 100 µM (inactive) | > 100 µM (inactive) | 12.6 µM (inactive) | > 100 µM (inactive) | > 100 µM (inactive) |
| O=C(Nc1cccc2c1[nH]c1c(-c3ccccc3)nccc12)c1ccccc1[N+](=O)[O-] | 7.13 µM (inactive) | 24.4 µM (inactive) | 34.1 µM (inactive) | 7.36 µM | 41.2 µM (inactive) | – | 27.9 µM (inactive) | – | – | 26.2 µM (inactive) | 18.6 µM (inactive) | 2.81 µM (inactive) | 49.1 µM (inactive) | 20.2 µM (inactive) | 29.7 µM (inactive) | 24.8 µM (inactive) | 12.6 µM (inactive) |
| CCN(C1=CC(=O)NC2CCCCN12)c1ccccc1 (centres undefined) | > 100 µM (inactive) | > 100 µM (inactive) | > 100 µM (inactive) | > 100 µM | > 100 µM (inactive) | > 100 µM (inactive) | > 100 µM (inactive) | > 100 µM (inactive) | > 100 µM (inactive) | – | > 100 µM (inactive) | – | > 100 µM (inactive) | > 100 µM (inactive) | > 100 µM (inactive) | > 100 µM (inactive) | > 100 µM (inactive) |
| COc1c(OC(C)=O)ccc(/C=C2\N=C(C)OC2=O)c1[N+](=O)[O-] | > 100 µM (inactive) | > 100 µM (inactive) | > 100 µM (inactive) | > 100 µM | > 100 µM (inactive) | – | > 100 µM (inactive) | > 100 µM (inactive) | > 100 µM (inactive) | > 100 µM (inactive) | > 100 µM (inactive) | > 100 µM (inactive) | > 100 µM (inactive) | > 100 µM (inactive) | 91.6 µM (inactive) | > 100 µM (inactive) | > 100 µM (inactive) |
| CCCCNC(=O)C1C(=O)N(CCCC)C(=O)/C1=N\N (centres undefined) | > 100 µM (inactive) | – | > 100 µM (inactive) | > 100 µM | > 100 µM (inactive) | > 100 µM (inactive) | > 100 µM (inactive) | > 100 µM (inactive) | > 100 µM (inactive) | – | > 100 µM (inactive) | > 100 µM (inactive) | > 100 µM (inactive) | > 100 µM (inactive) | > 100 µM (inactive) | > 100 µM (inactive) | > 100 µM (inactive) |
| COc1ccc(NC(=O)/C(Cc2cc(=O)oc3cc(O)ccc23)=N\NC(C)(C)C)c(OC)c1 | > 100 µM (inactive) | > 100 µM (inactive) | > 100 µM (inactive) | > 100 µM | > 100 µM (inactive) | > 100 µM (inactive) | > 100 µM (inactive) | > 100 µM (inactive) | > 100 µM (inactive) | > 100 µM (inactive) | > 100 µM (inactive) | 53 µM (inactive) | > 100 µM (inactive) | > 100 µM (inactive) | – | > 100 µM (inactive) | – |
| C=CCC1OC(C)(C)Oc2ccc(OCOCCOC)cc21 (centres undefined) | > 100 µM (inactive) | > 100 µM (inactive) | > 100 µM (inactive) | > 100 µM | > 100 µM (inactive) | > 100 µM (inactive) | > 100 µM (inactive) | > 100 µM (inactive) | > 100 µM (inactive) | – | > 100 µM (inactive) | > 100 µM (inactive) | > 100 µM (inactive) | > 100 µM (inactive) | > 100 µM (inactive) | > 100 µM (inactive) | > 100 µM (inactive) |
| Cc1cc2ncn(-c3nc4ccccc4nc3C(C#N)S(C)(=O)=O)c2cc1C (centres undefined) | – | > 100 µM (inactive) | > 100 µM (inactive) | > 100 µM | > 100 µM (inactive) | > 100 µM (inactive) | > 100 µM (inactive) | > 100 µM (inactive) | > 100 µM (inactive) | > 100 µM (inactive) | > 100 µM (inactive) | – | > 100 µM (inactive) | > 100 µM (inactive) | > 100 µM (inactive) | > 100 µM (inactive) | – |
| ClC(Cl)[Si]12OCCN(CCO1)CCO2 | > 100 µM (inactive) | > 100 µM (inactive) | – | – | > 100 µM (inactive) | > 100 µM (inactive) | > 100 µM (inactive) | > 100 µM (inactive) | > 100 µM (inactive) | > 100 µM (inactive) | > 100 µM (inactive) | > 100 µM (inactive) | > 100 µM (inactive) | > 100 µM (inactive) | > 100 µM (inactive) | > 100 µM (inactive) | > 100 µM (inactive) |
| Cn1c(-c2ccccc2)cc(-c2cccs2)c1-c1cccs1 | > 100 µM (inactive) | > 100 µM (inactive) | – | 46.2 µM | > 100 µM (inactive) | > 100 µM (inactive) | > 100 µM (inactive) | 45.3 µM (inactive) | > 100 µM (inactive) | 54.8 µM (inactive) | 71.9 µM (inactive) | > 29.2 µM (inactive) | > 100 µM (inactive) | > 100 µM (inactive) | > 100 µM (inactive) | > 100 µM (inactive) | > 81.3 µM (inactive) |
